Target: T1, human MDM2 (GST-hMDM2 aa 1-188), interaction with biotinylated-p53 (aa 1-83) (Homo sapiens, UniProt Q00987)
T1 construct: Amino acid residues 1-188 of human MDM2 were expressed; made in house; host or cells: Escherichia coli
Assay: Homogenous Time-Resolved Fluorescence Assay (HTRF1 assay), inhibition of HDM2-p53 interaction
Type: binding
Settings: 2.5 nM GST-hMDM2, 5 nM biotinylated-p53, 200 mM KF
Method: Homogenous Time-Resolved Fluorescence Assay (HTRF1 Assay)
Residues 1-83 of human p53 were expressed as an amino-terminal AviTag™-TrxA-6xHis fusion protein (biotinylated p53) in E. coli. Each protein was purified from cell paste by affinity chromatography.
Specifically, 10 uL of GST-hMDM2 was incubated with 10 ul of diluted compound (various concentrations, serially diluted) in 10% DMSO for 20 minutes at room temperature. 20 uL of biotinylated-p53 was added to the GST-hMDM2+ compound mixture, and then incubated at room temperature for 60 min. 10 uL of detection buffer consisting of SA-XLent, anti-GST cryptate antibody and KF was added to GST-hMDM2, biotinylated-p53 and compound reaction and left at room temperature to reach equilibrium for >4 hrs. The final concentration of DMSO in the reaction was 2%. Time-resolved fluorescence readings were measured on a microplate multilabel reader. Percentage of inhibition was calculated relative to nutlin-3.

T1 sequence (Q00987 1-188): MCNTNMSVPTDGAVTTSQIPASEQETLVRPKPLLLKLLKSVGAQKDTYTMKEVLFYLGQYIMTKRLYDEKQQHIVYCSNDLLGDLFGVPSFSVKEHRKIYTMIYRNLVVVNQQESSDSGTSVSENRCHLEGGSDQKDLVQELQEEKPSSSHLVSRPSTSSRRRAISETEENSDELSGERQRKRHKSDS

SMILES	IC50 [nM]
O=C(O)CC1O[C@H](c2cc(Cl)cc(Br)c2)[C@@H](c2ccc(Cl)cc2)N(CC2CC2)C1=O (single isomer, unassigned) [Example 104]	500
O=C(O)CC1O[C@H](c2cc(Cl)cc(Br)c2)[C@@H](c2ccc(Cl)cc2)N(CC2CC2)C1=O (single isomer, unassigned) [Example 105]	300
O=C(O)C[C@H]1O[C@H](c2cc(Cl)cc(-c3cn[nH]c3)c2)[C@@H](c2ccc(Cl)cc2)N(CC2CC2)C1=O (single isomer, unassigned) [Example 106]	5200
O=C(O)C[C@@H]1O[C@H](c2cc(Cl)cc(-c3cn[nH]c3)c2)[C@@H](c2ccc(Cl)cc2)N(CC2CC2)C1=O (single isomer, unassigned) [Example 107]	3800
O=C(O)C[C@H]1O[C@H](c2cc(Cl)cc(-c3cncnc3)c2)[C@@H](c2ccc(Cl)cc2)N(CC2CC2)C1=O (single isomer, unassigned) [Example 108]	4300
O=C(O)C[C@@H]1O[C@H](c2cc(Cl)cc(-c3cncnc3)c2)[C@@H](c2ccc(Cl)cc2)N(CC2CC2)C1=O (single isomer, unassigned) [Example 109]	2800
CS(=O)(=O)c1cc(Cl)cc([C@H]2O[C@H](CC(=O)O)C(=O)N(CC3CC3)[C@@H]2c2ccc(Cl)cc2)c1 (single isomer, unassigned) [Example 110]	3700
CS(=O)(=O)c1cc(Cl)cc([C@H]2O[C@@H](CC(=O)O)C(=O)N(CC3CC3)[C@@H]2c2ccc(Cl)cc2)c1 (single isomer, unassigned) [Example 111]	2300
O=C(O)/C=C1\O[C@H](c2cccc(Cl)c2)[C@@H](c2ccc(Cl)cc2)N(CC2CC2)C1=O (single isomer, unassigned; isomer 1) [Example 51, (Z)-2-((5R,6R)-6-(3-Chlorophenyl)-5-(4-chlorophenyl)-4-(cyclopropylmethyl)-3-oxomorpholin-2-ylidene)acetic acid or (E)-2-((5R,6R)-6-(3-Chlorophenyl)-5-(4-chlorophenyl)-4-(cyclopropylmethyl)-3-oxomorpholin-2-ylidene)acetic acid (Isomer 1)]	600
O=C(O)/C=C1/O[C@H](c2cccc(Cl)c2)[C@@H](c2ccc(Cl)cc2)N(CC2CC2)C1=O (single isomer, unassigned; isomer 2) [Example 52, (E)-2-((5R,6R)-6-(3-Chlorophenyl)-5-(4-chlorophenyl)-4-(cyclopropylmethyl)-3-oxomorpholin-2-ylidene)acetic acid or (Z)-2-((5R,6R)-6-(3-Chlorophenyl)-5-(4-chlorophenyl)-4-(cyclopropylmethyl)-3-oxomorpholin-2-ylidene)acetic acid (Isomer 2)]	19700
O=C(O)C[C@@H]1O[C@H](c2cccc(Cl)c2)[C@@H](c2ccc(Cl)cc2)N(CCC(F)(F)F)C1=O [Example 11, 2-((2S,5R,6R)-6-(3-Chlorophenyl)-5-(4-chlorophenyl)-3-oxo-4-(3,3,3-trifluoropropyl)morpholin-2-yl)acetic acid]	600
O=C(O)C[C@@H]1O[C@H](c2cccc(Cl)c2)[C@@H](c2ccc(Cl)cc2)N(C2CCC2)C1=O [Example 12, 2-((2S,5R,6R)-6-(3-Chlorophenyl)-5-(4-chlorophenyl)-4-cyclobutyl-3-oxomorpholin-2-yl)acetic acid]	900
O=C(O)C[C@H]1O[C@H](c2cccc(Cl)c2)[C@@H](c2ccc(Cl)cc2)N(C2CCC2)C1=O [Example 13, 2-((2R,5R,6R)-6-(3-Chlorophenyl)-5-(4-chlorophenyl)-4-cyclobutyl-3-oxomorpholin-2-yl)acetic acid]	700
O=C(O)C[C@@H]1O[C@H](c2cccc(Cl)c2)[C@@H](c2ccc(Cl)cc2)N(C2CCCC2)C1=O [Example 14, 2-((2S,5R,6R)-6-(3-Chlorophenyl)-5-(4-chlorophenyl)-4-cyclopentyl-3-oxomorpholin-2-yl)acetic acid]	300
O=C(O)C[C@H]1O[C@H](c2cccc(Cl)c2)[C@@H](c2ccc(Cl)cc2)N(C2CCCC2)C1=O [Example 15, 2-((2R,5R,6R)-6-(3-chlorophenyl)-5-(4-chlorophenyl)-4-cyclopentyl-3-oxomorpholin-2-yl)acetic acid]	300
O=C(O)C[C@@H]1O[C@H](c2cccc(Cl)c2)[C@@H](c2ccc(Cl)cc2)N(C2CCCCC2)C1=O [Example 16, 2-((2S,5R,6R)-6-(3-Chlorophenyl)-5-(4-chlorophenyl)-4-cyclohexyl-3-oxomorpholin-2-yl)acetic acid]	300

SMILES	IC50 [nM]
O=C(O)C[C@H]1O[C@H](c2cccc(Cl)c2)[C@@H](c2ccc(Cl)cc2)N(C2CCCCC2)C1=O [Example 17, 2-((2R,5R,6R)-6-(3-Chlorophenyl)-5-(4-chlorophenyl)-4-cyclohexyl-3-oxomorpholin-2-yl)acetic acid]	200
C[C@H](C1CCC1)N1C(=O)[C@@H](CC(=O)O)O[C@H](c2cccc(Cl)c2)[C@H]1c1ccc(Cl)cc1 [Example 20, 2-((2R,5R,6R)-6-(3-Chlorophenyl)-5-(4-chlorophenyl)-4-((R)-1-cyclobutylethyl)-3-oxomorpholin-2-yl)acetic acid]	300
C[C@H](C1CCC1)N1C(=O)[C@H](CC(=O)O)O[C@H](c2cccc(Cl)c2)[C@H]1c1ccc(Cl)cc1 [Example 21, 2-((2S,5R,6R)-6-(3-Chlorophenyl)-5-(4-chlorophenyl)-4-((R)-1-cyclobutylethyl)-3-oxomorpholin-2-yl)acetic acid]	300
C[C@@H](C1CCC1)N1C(=O)[C@@H](CC(=O)O)O[C@H](c2cccc(Cl)c2)[C@H]1c1ccc(Cl)cc1 [Example 22, 2-((2R,5R,6R)-6-(3-Chlorophenyl)-5-(4-chlorophenyl)-4-((S)-1-cyclobutylethyl)-3-oxomorpholin-2-yl)acetic acid]	500
C[C@@H](C1CCC1)N1C(=O)[C@H](CC(=O)O)O[C@H](c2cccc(Cl)c2)[C@H]1c1ccc(Cl)cc1 [Example 23, 2-((2S,5R,6R)-6-(3-Chlorophenyl)-5-(4-chlorophenyl)-4-((S)-1-cyclobutylethyl)-3-oxomorpholin-2-yl)acetic acid]	300
C[C@H](c1ccccc1)N1C(=O)[C@@H](CC(=O)O)O[C@H](c2cccc(Cl)c2)[C@H]1c1ccc(Cl)cc1 [Example 24, 2-((2R,5R,6R)-6-(3-Chlorophenyl)-5-(4-chlorophenyl)-3-oxo-4-((R)-1-phenylethyl)morpholin-2-yl)acetic acid]	1000
C[C@H](c1ccccc1)N1C(=O)[C@H](CC(=O)O)O[C@H](c2cccc(Cl)c2)[C@H]1c1ccc(Cl)cc1 [Example 25, 2-((2S,5R,6R)-6-(3-Chlorophenyl)-5-(4-chlorophenyl)-3-oxo-4-((R)-1-phenylethyl)morpholin-2-yl)acetic acid]	600
C[C@@H](c1ccccc1)N1C(=O)[C@@H](CC(=O)O)O[C@H](c2cccc(Cl)c2)[C@H]1c1ccc(Cl)cc1 [Example 26, 2-((2R,5R,6R)-6-(3-Chlorophenyl)-5-(4-chlorophenyl)-3-oxo-4-((S)-1-phenylethyl)morpholin-2-yl)acetic acid]	1500
C[C@@H](c1ccccc1)N1C(=O)[C@H](CC(=O)O)O[C@H](c2cccc(Cl)c2)[C@H]1c1ccc(Cl)cc1 [Example 27, 2-((2S,5R,6R)-6-(3-Chlorophenyl)-5-(4-chlorophenyl)-3-oxo-4-((S)-1-phenylethyl)morpholin-2-yl)acetic acid]	600
O=C(O)C[C@H]1O[C@H](c2cccc(Cl)c2)[C@@H](c2ccc(Cl)cc2)N(CC2CCCC2)C1=O [Example 28, 2-((2R,5R,6R)-6-(3-Chlorophenyl)-5-(4-chlorophenyl)-4-(cyclopentylmethyl)-3-oxomorpholin-2-yl)acetic acid]	500
O=C(O)C[C@@H]1O[C@H](c2cccc(Cl)c2)[C@@H](c2ccc(Cl)cc2)N(CC2CCCC2)C1=O [Example 29, 2-((2S,5R,6R)-6-(3-Chlorophenyl)-5-(4-chlorophenyl)-4-(cyclopentylmethyl)-3-oxomorpholin-2-yl)acetic acid]	300
O=C(O)C[C@@H]1O[C@H](c2cccc(Cl)c2)[C@@H](c2ccc(Cl)cc2)NC1=O [Example 34, 2-((2S,5R,6R)-6-(3-Chlorophenyl)-5-(4-chlorophenyl)-3-oxomorpholin-2-yl)acetic acid]	25000
O=C(O)C[C@H]1O[C@H](c2cccc(Cl)c2)[C@@H](c2ccc(Cl)cc2)NC1=O [Example 35, 2-((2R,5R,6R)-6-(3-Chlorophenyl)-5-(4-chlorophenyl)-3-oxomorpholin-2-yl)acetic acid]	13000
CCCCN1C(=O)[C@H](CC(=O)O)O[C@H](c2cccc(Cl)c2)[C@H]1c1ccc(Cl)cc1 [Example 40, 2-((2S,5R,6R)-4-Butyl-6-(3-chlorophenyl)-5-(4-chlorophenyl)-3-oxomorpholin-2-yl)acetic acid]	700
O=C(O)C[C@@H]1O[C@H](c2cccc(Cl)c2)[C@@H](c2ccc(Cl)cc2)N(Cc2ncco2)C1=O [Example 43, 2-((2S,5R,6R)-6-(3-Chlorophenyl)-5-(4-chlorophenyl)-4-(oxazol-2-ylmethyl)-3-oxomorpholin-2-yl)acetic acid]	1100
CCN1C(=O)[C@@H](CC(=O)O)O[C@H](c2cccc(Cl)c2)[C@H]1c1ccc(Cl)cc1 [Example 44, 2-((2R,5R,6R)-6-(3-Chlorophenyl)-5-(4-chlorophenyl)-4-ethyl-3-oxomorpholin-2-yl)acetic acid]	900

From patent US9376425B2, “Heterocyclic compounds as MDM2 inhibitors for the treatment of cancer” (AMGEN INC., priority 2011, dated 2016)
